# Measurements reported in patent US4906661A, “Esters of aryloxypropanolamine derivatives” (E. I. Du Pont de Nemours and Company, priority 1989, dated 1990).
# “And” between values parts separate entries of the source, which are not always exact repeats. Equal values may be shown once. Where a name gives a salt, the structure may show the parent alone. Read-outs that look alike come from different tables or passages of the source.
# Tests used:
# [1] = target: β1 receptors, guinea pig right atria (Cavia porcellus, UniProt H0W3H1); assay: cell-based
# Procedure: Each tissue was suspended between a fixed glass rod and a Statham Universal Transducer connected to a Beckman recorder. Atria were allowed to beat spontaneously under a loading tension of approximately 0.5 gm. Intrinsic depressant or stimulant activity was determined for each compound by progressively increasing concentrations in the tissue baths at 60-minute intervals. Tissues were not washed between increments. The maximum concentration showing little or no cardiodepressant activity was chosen for blockade experiments. Changes in rate in response to isoproterenol, a standard β-receptor agonist, were measured in the absence and presence of test compounds. Spiral strips of guinea pig trachea were suspended under 5 gm resting tension and incubated with phentolamine, tropolone and cocaine. Active tension was generated by addition of carbachol (3.0×10^-7 M) and decreases in tension in response to isoproterenol were quantitated. Cumulative concentration-response curves were produced with isoproterenol both before and after 60-minute incubation of test compounds with atria and trachea. […] The blocking potency of test compounds was estimated by computing pA2 values (-log KB) by the method of Furchgott, the Pharmacological Differentiation of Adrenergic Receptors, Ann. […] The degree of cardioselectivity was estimated from the ratio, KB trachea/KB atria (10^(pA2 atria-pA2 trachea)). A ratio greater than one indicates cardioselectivity. Test drugs were dissolved in distilled water and added to the bath (30 ml) in a volume of 10 or 100 μl.
# [2] = target: β2 receptors, guinea pig trachea (Cavia porcellus, UniProt Q8K4Z4); assay: cell-based
# Procedure: Each tissue was suspended between a fixed glass rod and a Statham Universal Transducer connected to a Beckman recorder. Atria were allowed to beat spontaneously under a loading tension of approximately 0.5 gm. Intrinsic depressant or stimulant activity was determined for each compound by progressively increasing concentrations in the tissue baths at 60-minute intervals. Tissues were not washed between increments. […] Changes in rate in response to isoproterenol, a standard β-receptor agonist, were measured in the absence and presence of test compounds. Spiral strips of guinea pig trachea were suspended under 5 gm resting tension and incubated with phentolamine, tropolone and cocaine. Active tension was generated by addition of carbachol (3.0×10^-7 M) and decreases in tension in response to isoproterenol were quantitated. Cumulative concentration-response curves were produced with isoproterenol both before and after 60-minute incubation of test compounds with atria and trachea. […] The blocking potency of test compounds was estimated by computing pA2 values (-log KB) by the method of Furchgott, the Pharmacological Differentiation of Adrenergic Receptors, Ann. […] A ratio greater than one indicates cardioselectivity. Test drugs were dissolved in distilled water and added to the bath (30 ml) in a volume of 10 or 100 μl.
# [3] = tested on: β-adrenergic receptors, guinea pig trachea vs right atria; assay: Cardioselectivity, KB trachea/KB atria; assay type: cell-based; settings: 10^(pA2 atria-pA2 trachea); ratio greater than one indicates cardioselectivity
# Procedure: Each tissue was suspended between a fixed glass rod and a Statham Universal Transducer connected to a Beckman recorder. Atria were allowed to beat spontaneously under a loading tension of approximately 0.5 gm. Intrinsic depressant or stimulant activity was determined for each compound by progressively increasing concentrations in the tissue baths at 60-minute intervals. Tissues were not washed between increments. The maximum concentration showing little or no cardiodepressant activity was chosen for blockade experiments. Changes in rate in response to isoproterenol, a standard β-receptor agonist, were measured in the absence and presence of test compounds. Spiral strips of guinea pig trachea were suspended under 5 gm resting tension and incubated with phentolamine, tropolone and cocaine. Active tension was generated by addition of carbachol (3.0×10^-7 M) and decreases in tension in response to isoproterenol were quantitated. Cumulative concentration-response curves were produced with isoproterenol both before and after 60-minute incubation of test compounds with atria and trachea. […] The degree of cardioselectivity was estimated from the ratio, KB trachea/KB atria (10^(pA2 atria-pA2 trachea)). A ratio greater than one indicates cardioselectivity. Test drugs were dissolved in distilled water and added to the bath (30 ml) in a volume of 10 or 100 μl.
# [4] = tested on: heart rate response to isoproterenol; assay: Duration and potency of beta-blocking action in vivo, 3-hour infusion in anesthetized dogs, isoproterenol challenge; design: species or system dog; settings: for Duration, time for 50% recovery from 50% blockade levels: Table IV, after infusion of drug, mean ± SEM; for Recovery Time 50%: 50% recovery from β-blockade after termination of infusion; for Recovery Time 80%: 80% recovery from β-blockade after termination of infusion; for % I, percent inhibition of heart rate response to isoproterenol: end of 3-hour infusion, isoproterenol 0.5 μg/kg
# Procedure: The duration of β-blockade was determined In vivo using pentobarbital-anesthetized dogs instrumented for measurement of heart rate using a Beckman cardiotachometer triggered electronically by a phasic aortic blood pressure signal. Both vagus nerves were served in the cervical region and the animals were mechanically ventilated. The experimental design used employed a 3-hour infusion of test compound. Bolus doses of isoproterenol (0.5 μg/kg) were used to assess the degree of β-blockade and recovery from β-blockade after […] of the infusion. The doses were spaced at 10-minute intervals and were given before, during and following the infusion of test compounds. The infusion rate was adjusted so that at the end of the 3-hour infusion period the degree of isoproterenol inhibition averaged about 50% of control. Following termination of blocker infusion, percent recovery from β-blockade was computed and the time associated with 80% recovery estimated.
# ^c Time in minutes for 50% recovery from 50% blockade levels after 3
# Infusions of drug. Number of experiments is equal to or greater than thre
# for each compound unless noted otherwise. Tabulated data are mean values
# ^c The betablocking activities were evaluated Invivo in a canine
# model. The betablocker was infused in the animal for 3 hours with the dos
# adjusted to give approximately 50%. blockage of the Isoproternolinduced
# tachycardia. The infusion was then terminated and the time required for
# 80% recovery of blockade was recorded as duration of action of the
# compound. The amount of drug infused during the 3 hours was averaged and
# expressed as potency in ug/kg/min.
# [5] = Half-life in dog liver homogenate (procedure D); assay type: in vitro ADME; settings: 37° C., read-out: T1/2 dog liver homogenate
# Procedure: (§1) In each experiment, 1 ml of a solution containing 50 μg of the test compound was added to 1 ml of whole blood or 1 ml of a 33% (w/v) liver homogenate. The samples were incubated in a Dubnoff shaking metabolic incubator for 2.5, 5.0, 10.0, 20.0, 30.0 and 60.0 minutes at 37° C. At the designated time periods, the test mixtures were removed from the incubator and transferred to a 0° C. ice bath. Acetonitrile (2 ml) was immediately added and the mixtures were mixed to stop enzymatic hydrolysis. Zero time samples were prepared by adding 2 ml of acetonitrile to denature the proteins prior to addition of the test compounds. After centrifugation to sediment denatured proteins, 2 ml of the supernatant was removed and analyzed by high pressure liquid chromatography, using a mobile phase of 60% acetonitrile/40% 0.05 M sodium phosphate buffer (pH 6.6), a U.V. detector and Waters μ Bondapak Phenyl column.
# (§2) The half life of each test compound was determined graphically by plotting the decrease in concentrations as a function of time.
# [6] = Half-life in dog whole blood (procedure D); assay type: in vitro ADME; settings: 37° C., read-out: T1/2 dog blood
# Procedure: as §1, §2
# [7] = topical (eye), Physicians' Desk Reference 1981; cited from earlier work
# [8] = Table VI, read-out: pA2 Atria (converted)
# [9] = Table IV, mean, n ≥ 2, range ≤ ± 0.2 units, read-out: pA2 Atria (converted)
# [10] = Table IV, mean, n ≥ 2, range ≤ ± 0.2 units, read-out: pA2 Trachea (converted)
# [11] = Table I, guinea pig right atria, vs isoproterenol, -log KB, read-out: PA2 Rt. Atria (converted)
# [12] = Table I, guinea pig trachea, vs isoproterenol, -log KB, read-out: PA2 Trachea (converted)
# [13] = Table IV, mean, n ≥ 2, range ≤ ± 0.2 units
# [14] = Table V, guinea pig right atria (B1), read-out: In Vitro pA2 Atria (converted)
# Sequence of β2 receptors, guinea pig trachea (Q8K4Z4 whole entry): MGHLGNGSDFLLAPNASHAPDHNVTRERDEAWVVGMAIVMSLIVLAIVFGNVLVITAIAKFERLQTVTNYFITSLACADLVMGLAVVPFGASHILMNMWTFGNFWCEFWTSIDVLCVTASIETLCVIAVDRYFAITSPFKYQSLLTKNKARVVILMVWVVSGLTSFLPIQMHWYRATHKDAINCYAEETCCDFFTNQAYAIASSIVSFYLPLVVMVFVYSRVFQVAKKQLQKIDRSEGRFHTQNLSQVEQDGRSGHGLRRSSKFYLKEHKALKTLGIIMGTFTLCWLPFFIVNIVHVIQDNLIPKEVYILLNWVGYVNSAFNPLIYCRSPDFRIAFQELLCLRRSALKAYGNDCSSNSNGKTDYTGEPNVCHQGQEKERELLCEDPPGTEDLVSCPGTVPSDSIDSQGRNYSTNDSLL
# Sequence of β1 receptors, guinea pig right atria (H0W3H1 1-470): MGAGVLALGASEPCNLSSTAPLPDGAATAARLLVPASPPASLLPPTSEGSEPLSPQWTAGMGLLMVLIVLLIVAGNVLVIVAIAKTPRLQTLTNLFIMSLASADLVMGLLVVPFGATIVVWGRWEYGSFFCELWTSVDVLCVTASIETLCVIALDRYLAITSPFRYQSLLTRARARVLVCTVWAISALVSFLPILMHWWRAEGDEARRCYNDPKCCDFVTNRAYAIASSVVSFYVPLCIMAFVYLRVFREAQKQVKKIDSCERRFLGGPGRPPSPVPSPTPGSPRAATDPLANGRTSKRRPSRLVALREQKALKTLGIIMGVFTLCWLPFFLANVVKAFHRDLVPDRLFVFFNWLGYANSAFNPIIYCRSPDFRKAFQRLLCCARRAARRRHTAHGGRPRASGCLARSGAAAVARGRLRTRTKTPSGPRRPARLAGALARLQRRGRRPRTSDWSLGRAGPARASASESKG
smiles,measurement,setting,value
CCOC(=O)CCc1nsnc1OCC(O)CNC(C)CNC(C)=O (stereo not shown) [No. 4 (Table VI)],Kb,[1]; [8],100 nM
CCOC(=O)NCC(C)(C)NCC(O)COc1ccccc1C(=O)OCC (stereo not shown) [Example 2],Kb,[1]; [9],5.01 nM
same,Kb,[2]; [10],10 nM
"COC(=O)c1ccccc1OCC(O)CNCCNS(=O)(=O)c1ccc(C)cc1.O=C(O)C(=O)O (stereo not shown) [Example VII, Methyl 2-[2-Hydroxy-3-[N-[2-[N-(4-methylphenylsulfonyl)amino]ethyl]amino]propoxy]benzoate Oxalate]",Kb,[1]; [11],158 nM
same,Cardioselectivity KB (Trachea)/KB (Atria),[3],2
same,Kb,[2]; [12],79.4 nM
CCOC(=O)CCc1ccc(OCC(O)CNC(C)(C)CNC(=O)OCC)cc1 (stereo not shown) [No. 14 (Table IV)],Kb,[1]; [9],794 nM
same,Kb,[2]; [10],200 nM
CCOC(=O)CCc1ccc(OCC(O)CNC(C)(C)CNC(N)=O)cc1 (stereo not shown) [No. 13 (Table IV)],Kb,[1]; [9],1000 nM
same,Kb,[2]; [10],398 nM
same,"Duration, time for 50% recovery from 50% blockade levels",[4],12 ± 4 min
CCOC(=O)CCc1ccc(OCC(O)CNCCNC(=O)Cc2ccccc2)cc1 (stereo not shown) [No. 12 (Table IV)],Kb,[1]; [9],31.6 nM
same,Kb,[2]; [10],1260 nM
same,"Duration, time for 50% recovery from 50% blockade levels",[4],6 ± 4 min
"COC(=O)c1ccccc1OCC(O)CNCCNC(=O)Nc1ccccc1 (stereo not shown) [Example IV, Methyl 2-[2-Hydroxy-3-[N-[2-[N-(phenylaminocarbonyl)amino]ethyl]amino]propoxy]benzoate]",Kb,[1]; [11],7.94 nM
same,Cardioselectivity KB (Trachea)/KB (Atria),[3],25
same,half-life,[5],> 3 h
same,half-life,[6],> 3 h
same,Kb,[2]; [12],200 nM
same,Recovery Time 50%,[4]; Table II,> 60 min
same,Recovery Time 80%,[4]; Table II,> 60 min
same,"% I, percent inhibition of heart rate response to isoproterenol",[4]; Table II,72 ± 3%
CCOC(=O)CCc1ccc(OCC(O)CNCCNS(=O)(=O)N(C)C)cc1 (stereo not shown) [No. 16 (Table IV)],pA2 Atria,[1]; [13],5.8
same,pA2 Trachea,[2]; [13],5.7
CC(C)(C)NC[C@H](O)COc1nsnc1N1CCOCC1 [timolol maleate],adverse reactions to the topical use,[7],"bronchospasm and heart failure, as well as cardiac conduction defects"
CCOC(=O)CCc1nsnc1OCC(O)CNCCNS(=O)(=O)N1CCOCC1 (stereo not shown) [No. 7 (Table VI)],Kb,[1]; [8],794 nM
"COC(=O)c1ccccc1OCC(O)CNC(C)(C)CNS(=O)(=O)c1ccccc1 (stereo not shown) [VIII, Methyl 2-[2-Hydroxy-3-[N-[1,1-dimethyl-2-(phenylsulfonylamino)ethyl]amino]proxy]benzoate Oxalate]",Kb,[2]; [12],1.58 nM
same,Recovery Time 50%,[4]; Table II,26 ± 6 min
same,Recovery Time 80%,[4]; Table II,> 60 min
same,"% I, percent inhibition of heart rate response to isoproterenol",[4]; Table II,74%
CCOC(=O)CCc1ccccc1OCC(O)CNCCNC(=O)C(C)C (stereo not shown) [Example 6],Kb,[1]; [9],63.1 nM
same,Kb,[2]; [10],20 nM
CCOC(=O)CCc1ccc(OCC(O)CNCCNC(=O)C(C)C)cc1 (stereo not shown) [No. 10 (Table IV)],Kb,[1]; [9],794 nM
same,Kb,[2]; [10],398 nM
same,"Duration, time for 50% recovery from 50% blockade levels",[4],6 ± 3 min
CCOC(=O)CCc1ccc(OCC(O)CNCCNC(C)=O)cc1 (stereo not shown) [No. 9 (Table IV)],Kb,[1]; [9],501 nM
same,Kb,[2]; [10],316 nM
same,"Duration, time for 50% recovery from 50% blockade levels",[4],10 ± 4 min
CCOC(=O)CCc1ccc(OCC(O)CNCCNS(=O)(=O)c2ccc(C)cc2)cc1 (stereo not shown) [No. 17 (Table IV)],Kb,[1]; [9],1000 nM
same,Kb,[2]; [10],6310 nM
CCOC(=O)CCc1nsnc1OCC(O)CNCCNC(=O)Cc1ccccc1 (stereo not shown) [No. 6 (Table VI)],Kb,[1]; [8],79.4 nM
CCOC(=O)CCc1nsnc1OCC(O)CNCCNC(=O)C(C)C (stereo not shown) [No. 1 (Table V)],Kb,[1]; [14],100 nM
CCOC(=O)CCc1ccc(OCC(O)CNC(C)(C)CNC(=O)C2CCCCC2)cc1 (stereo not shown) [No. 11 (Table IV)],Kb,[2]; [10],398 nM
"COC(=O)c1ccccc1OCC(O)CNC(C)(C)CNC(=O)N1CCOCC1 (stereo not shown) [Example VI, Methyl 2-[2-Hydroxy-3-[N-[1,1-dimethyl-2-(1-morpholinocarbonylamino)ethyl]amino]propoxy]benzoate Oxalate]",Kb,[1]; [11],< 1 nM
same,Recovery Time 50%,[4]; Table II,> 60 min
same,Recovery Time 80%,[4]; Table II,> 60 min
same,"% I, percent inhibition of heart rate response to isoproterenol",[4]; Table II,93% and 89%
"CC(C)NCC(O)COc1cccc2ccccc12 (stereo not shown) [Propranolol, reference compound]",Potency,"[4]; Table II, 3-hour infusion, dog",0.225 mg/kg/180 min
same,Recovery Time 50%,[4]; Table II,> 60 min
same,Recovery Time 80%,[4]; Table II,> 60 min
same,"% I, percent inhibition of heart rate response to isoproterenol",[4]; Table II,67 ± 6%
same,"Duration, time for 50% recovery from 50% blockade levels",[4],> 60 min
CCOC(=O)c1ccccc1OCC(O)CNCCNS(=O)(=O)N(C)C (stereo not shown) [Example 4],Kb,[1]; [9],39.8 nM
same,Kb,[2]; [10],20 nM
CCOC(=O)CCc1nsnc1OCC(O)CNCCNC(C)=O (stereo not shown) [No. 3 (Table VI)],Kb,[1]; [8],501 nM
CCOC(=O)CCc1ccc(OCC(O)CNC(C)(C)CNS(=O)(=O)c2ccccc2)cc1 (stereo not shown) [No. 18 (Table IV)],Kb,[1]; [9],501 nM
same,Kb,[2]; [10],251 nM
CCOC(=O)c1ccccc1OCC(O)CNCCNC(=O)C(C)C (stereo not shown) [Example 1],Kb,[1]; [9],3.16 nM
same,Kb,[2]; [10],20 nM
CCOC(=O)CCc1ccc(OCC(O)CNC(C)(C)CNS(=O)(=O)N(C)C)cc1 (stereo not shown) [No. 15 (Table IV)],pA2 Atria,[1]; [13],5.8
same,Kb,[1]; [9],1580 nM
same,pA2 Trachea,[2]; [13],6.5
same,Kb,[2]; [10],316 nM
"CC(C)(C)NC[C@H](O)COc1nsnc1N1CCOCC1 [Timolol, reference compound]","Duration, time for 50% recovery from 50% blockade levels",[4],> 60 min
CCOC(=O)CCc1nsnc1OCC(O)CNC(C)(C)CNC(C)=O (stereo not shown) [No. 5 (Table VI)],Kb,[1]; [8],79.4 nM
CCOC(=O)c1ccccc1OCC(O)CNCCNS(=O)(=O)c1ccc(C)cc1 (stereo not shown) [Example 5],Kb,[1]; [9],158 nM
same,Kb,[2]; [10],25.1 nM
CCOC(=O)CCc1nsnc1OCC(O)CNC(C)(C)CNC(N)=O (stereo not shown) [No. 2 (Table VI)],Kb,[1]; [8],39.8 nM
CCOC(=O)CCc1nsnc1OCC(O)CNC(C)(C)CNC(=O)OCC (stereo not shown) [No. 1 (Table VI)],Kb,[1]; [8],63.1 nM
CCOC(=O)CCc1nsnc1OCC(O)CNC(C)(C)CNC(=O)C(C)C (stereo not shown) [No. 2 (Table V)],Kb,[1]; [14],6.31 nM
CCOC(=O)CCc1ccc(OCC(O)CNC(C)(C)CNC(=O)N2CCOCC2)cc1 (stereo not shown) [No. 19 (Table IV)],Kb,[1]; [9],15.8 nM
same,Kb,[2]; [10],200 nM
same,"Duration, time for 50% recovery from 50% blockade levels",[4],21 ± 4 min
